Experiments:
Type in all cases: cell-based
[1] = tested on: Murine ES cells; assay: Beating embryoid bodies (EBs) from ES cells grown in suspension; conditions: for number of beating EBs at EB12: early treatment EB4-6, Wnt3a 150 ng/ml or Dkk1 500 ng/ml, untreated 10%; for EBs beating by EB 12: late treatment EB 7-9, Wnt3a 150 ng/ml or Dkk1 500 ng/ml, control EBs 13%
Protocol: (§1) ES cell culture and gene expression analysis. Murine ES cells were propagated undifferentiated in maintenance medium consisting of Glasgow MEM (Sigma G5154) supplemented with 10% fetal bovine serum (FBS, Hyclone SH30071.03), 1 mM β-mercaptoethanol (Sigma M7522), 2 mM L-glutamine (Gibco-BRL 25030-081), 1 mM sodium pyruvate (Gibco-BRL 11360-070), 0.1 mM minimum essential medium containing nonessential amino acids, and LIF-conditioned medium (1:1000). EBs were formed by culturing ES cells (6×10^5/well) for 3 days in ultra-low-attachment six-well plates (Costar 07200601) in differentiation medium (DM), which contained the same components as maintenance medium but had 20% FBS and no LIF. For early treatment, the medium was replaced with DM containing Wnt3a (150 ng/ml, R&D systems) or Dkk1 (500 ng/ml, R&D systems) at the start of day 4; on day 6, the medium was replaced with fresh DM. For late treatment, DM was replaced with Wnt3a- or Dkk1-containing DM at the start of day 7 and switched to fresh DM on day 9. Respective media were changed for early-, late-, and un-treated EBs every 3 days. EBs were monitored for beating from days 8-12. EBs were collected between days 3 and 12 at regular intervals. For gene expression analysis, total RNA was isolated, and real-time PCR was performed with the ABI Prism system (7900HT, Applied Biosystems). All samples were run in triplicate. Real-time PCR data were normalized and standardized with SDS2.2 software.
(§2) FIGS. 4A-E. Canonical Wnt signaling regulates cardiac induction and differentiation in ES cells. a, Brachyury expression profiles, determined by quantitative real-time PCR (qPCR), of undifferentiated ES cells on day 0 and EBs harvested on days 3, 6, and 9 after early Wnt3a or Dkk-1 treatment compared to control. b, Beating EBs grown in suspension were counted from days 8-12. Percentage of beating EBs after early (days 4-6) or late (days 7-9) treatment with Wnt3a (left) or Dkk-1 (right). Asterisks indicate significant difference in beating percentage of treatment groups versus untreated EBs (P<0.01). c, d Immunohistochemistry of day 12 EBs with anti-Islet1 (c) or anti-Tropomyosin (d). e, Cardiac gene expression after early (days 4-6, top) or late (days 7-9, bottom) treatment with Wnt3a or Dkk-1. EBs were harvested on days 3, 6 and 9 (early treatment) or days 6, 9, and 12 (late treatment). Fold change in expression of all indicated genes (y-axis) in EBs with respect to undifferentiated ES cells was assessed by qPCR. NS, not significant. *P<0.01.

[2] = tested on: Murine ES cells; assay: Mesoderm and cardiac gene expression in EBs by quantitative real-time PCR; conditions: qPCR; for Bry (Brachyury) expression: early treatment after EB3, compared to control; for expression of early cardiac gene Nkx2.5 / expression of early cardiac gene Tbx5: exposure from EB4-6 (early treatment); for expression of early and late cardiac markers (cardiac gene expression): late treatment EB 7-9
Protocol: as §1, §2

[3] = tested on: Murine ES cells; assay: Immunohistochemistry of day 12 EBs with anti-Islet1 or anti-Tropomyosin; conditions: for number of Isl1-positive cells in EBs: anti-Islet1 immunohistochemistry; for number of Tropomyosin-positive cells in EBs: anti-Tropomyosin immunohistochemistry
Protocol: Immunohistochemistry and in situ hybridization. Whole or cryosectioned embryos and EBs were stained with the following antibodies: mouse anti-Islet1 (1:200) and anti-tropomyosin (1:100) (DSHB), goat anti-Wnt8a (15 μg/ml, R&D Systems), goat anti-β-catenin (1:50) and rat anti-cyclin D2 (1:100) (Santa Cruz Biotechnology), rabbit anti-phospho-Histone H3 (1:100, Upstate), and horseradish peroxidase-conjugated (with TSA plus Fluorescent Systems, PerkinElmer) secondary antibodies (The Jackson Laboratory). mRNA in situ hybridization was performed with designated antisense probes as described. Srivastava et al Science 270, 1995-9 (1995).
as §1
FIGS. 4A-E. Canonical Wnt signaling regulates cardiac induction and differentiation in ES cells. a, Brachyury expression profiles, determined by quantitative real-time PCR (qPCR), of undifferentiated ES cells on day 0 and EBs harvested on days 3, 6, and 9 after early Wnt3a or Dkk-1 treatment compared to control. b, Beating EBs grown in suspension were counted from days 8-12. Percentage of beating EBs after early (days 4-6) or late (days 7-9) treatment with Wnt3a (left) or Dkk-1 (right). […] Fold change in expression of all indicated genes (y-axis) in EBs with respect to undifferentiated ES cells was assessed by qPCR. […]

[4] = tested on: human embryonic stem (ES) cells (H9); assay: Beating of differentiating human ES cells treated with Wnt-3a
Protocol: Differentiating human embryonic stem (ES) cells (H9) were treated with Wnt-3a. […] Thus, canonical Wnt promotes human ES cells to differentiate into cardiomyocytes.

Substance | number of beating EBs at EB12 [1] | EBs beating by EB 12 [1] | Bry (Brachyury) expression [2] | expression of early cardiac gene Nkx2.5 [2] | expression of early cardiac gene Tbx5 [2] | expression of early and late cardiac markers (cardiac gene expression) [2] | number of Isl1-positive cells in EBs [3] | number of Tropomyosin-positive cells in EBs [3] | number of beating hES cells [4]
Dkk1 | complete absence of beating EBs | Approximately 10% | unaltered | downregulated | downregulated | not changed | decreased | decreased | 
Wnt3a | over 50% | ~50% | unaltered | upregulated | upregulated | upregulated | increased | increased | significantly increased

From patent publication US20100129915A1, “METHODS FOR INDUCING CARDIOMYOGENESIS” (priority 2006, published 2010)
